The source of these data is US20080188499A1, “Carbo- and Hetero-Cyclic Antibiotics and Use Thereof” (priority 2004, published 2008).

In one series the test system is S. aureus strain Newman. Nature of the series: In vivo efficacy: S. aureus model of systemic infection in the mouse. Conditions: for antimicrobial activity in vivo (viable bacteria in the kidneys): S. aureus systemic infection, administrated by gavage 1 hour post-infection, kidneys 5 hours after inoculation. The method, then:
In vivo efficacy. The antimicrobial activity of compounds was also evaluated in a S. aureus model of systemic infection in the mouse. To produce the systemic infection, CD-1 female mice (20 g) were injected intra-peritoneally with 10^7 CFU of S. aureus strain Newman suspended in 0.5 ml of endotoxin-free PBS containing 5% mucin (w/v). The compounds were administrated at 1 hour post-infection and kidneys harvested and pooled, for each animal, 5 hours after bacterial inoculation. Tissues were homogenized in PBS and homogenates serially diluted and plated for CFU determination.

The test system of the next series is DNA metabolism. Nature of the series: Mode of action studies: macromolecular biosynthesis assays (incorporation of radiolabeled precursors). The format is cell-based. The following applies: FIG. 1; initial mode of action studies. The method, then:
Mode of action studies. Macromolecular biosynthesis assays were performed to identify the microbial cellular processes selectively affected by antibiotic compounds. Exponentially growing bacteria in MHB were washed and diluted in a complete synthetic medium to an optical density of 0.2 (at 600 nm). Cells were then distributed in 96-well plates containing serially diluted antibiotic compounds and radiolabeled precursors. The radiolabeled precursors were D-[^3H]-alanine for peptidoglycan synthesis, [^3H]-thymidine for DNA synthesis, [^3H]-uridine for RNA synthesis and [^3H]-leucine for protein synthesis. Incorporation was allowed for 30 minutes at 35° C. before macromolecules were precipitated for 1 hour on ice in the presence of 10% trichloroacetic acid. The radioactive precipitates were then collected onto GC filters and the radioactivity measured by liquid scintillation counting. Data were expressed as the percentage of radioactivity incorporated compared to control cells grown in the absence of antibiotic compound.

A further series deals with E. coli ATCC 25922. Nature of the series: MIC determination by broth microdilution, E. coli. The class given is cell-based, Escherichia coli. The method, then:
(§1) Bacteria. Susceptibility tests were performed against several bacterial species following the recommendations from the National Committee for […] (NCCLS). The MICs were determined by a broth microdilution technique using a final volume of 100 μl of cation-adjusted Mueller Hinton Broth (MHBCA) and a bacterial inoculum of 10^5-10^6 Colony Forming Units (CFU)/ml. The inocula were verified and precisely determined by applying 10 μl drops of 10 fold dilutions onto Triptic Soy Agar plates. The CFU were counted after an incubation of 24 h at 35° C. Any experiment showing an inoculum that was more or less than 10^5-10^6 CFU/ml was rejected. Control antibiotics and test compounds were prepared at a concentration equivalent to 2 fold the highest desired final concentration. Compounds were then diluted directly in the 96-well microtiter plates by serial 2-fold dilutions using a multichannel pipette. Microtiter plates were incubated for 24 h at 35° C. and growth was recorded by using a microtiter plate reader at 650 nm as well as by visual observation. The MIC was defined as the lowest concentration of compound yielding no visible growth. At least two commercial antibiotics (e.g., imipenem and vancomycin) were always included as internal microtiter plate controls in each MIC assay.
For orientation: Broth dilution looks for growth in wells or tubes with falling amounts of substance.

For the next series, the system named is MRSA strains. The experiment in a line: MIC determination by broth microdilution, antibiotic multi-resistant MRSA strains. The class given is cell-based, S. aureus. The method, then: as §1
Another series relates to B. cereus. Nature of the series: MIC determination, B. cereus. The format is cell-based. Conditions: Bacillus cereus. The method, then:
as §1

The subject of series [1] is bacterial genus Mycobacterium. The experiment in a line: MIC determination, Mycobacterium. The format is cell-based, Mycobacterium smegmatis. The method, then:
as §1
(§2) Fastidious bacteria. […]

Another series has as its system B. subtilis. Nature of the series: MIC determination, B. subtilis. Conditions: Bacillus subtilis. The class given is cell-based. The method, then: as §1
Series [2] relates to Methicillin-Sensitive S. aureus strains (MSSA). The experiment in a line: MIC determination, Methicillin-Sensitive S. aureus. The format is cell-based. Conditions: Staphylococcus aureus. As for the experimental part: as §1
The next series relates to Yersinia enterocolytica. Nature of the series: MIC determination, Yersinia enterocolytica. The format is cell-based. As for the experimental part:
as §1

Another series relates to Haemophilus influenzae. The experiment in a line: MIC determination, Haemophilus influenzae. The format is cell-based. The method, then:
as §1, §2

A further series has as its system anaerobic bacteria. The experiment in a line: MIC determination, anaerobic bacteria. The class given is cell-based. The following applies: Bacteroides fragilis. The method, then:
as §1, §2

Another series relates to E. faecalis. The experiment in a line: MIC determination, Enterococci. The class given is cell-based. The following applies: Enterococcus faecalis. As for the experimental part:
as §1

The next series deals with Burkholderia cepacia. Nature of the series: MIC determination, Burkholderia cepacia. The format is cell-based. The method, then:
as §1

The next series concerns B. atrophaeus. Nature of the series: MIC determination, B. atrophaeus. The format is cell-based. Conditions: Bacillus atrophaeus. The method, then: as §1
Series [3] deals with Branhamella (Moraxella) catarrhalis. Nature of the series: MIC determination, Branhamella (Moraxella) catarrhalis. The class given is cell-based. As for the experimental part:
as §1, §2

Setting [4] is: Escherichia coli, ATCC25922, E. coli ATCC 25922, read-out: MIC.

In brackets after ≈: the same amount, converted by molar mass. Read-outs that look alike come from different tables or passages of the source.

For `O=[N+]([O-])c1ccc(C=Cc2nc(Nc3ccc(O)c(O)c3)c3ccccc3n2)o1` [Example 1, Compound VI, 2-[2-(5-nitro-2-furyl)vinyl]-4-(3,4-dihydroxyanilino)quinazoline], the toxicity in vivo result in the series with S. aureus strain Newman (S. aureus systemic infection model) is listed as “relatively low toxicity”. Also, the “antimicrobial activity in vivo (viable bacteria in the kidneys)” value with S. aureus strain Newman (listed as 2-[2-(5-nitro-2-furyl)vinyl]-4-(3,4-dihydroxyanilino)-quinazoline) was “active in vivo”; in the series on S. aureus strain Newman (listed as Example 1 compound VI), “reduced the presence of viable bacteria in the kidneys”. For the same compound, the “mode of action (cellular process affected, incorporation of radiolabeled precursors into macromolecules)” value in the series on DNA metabolism is given as “inhibition of DNA metabolism”. Besides, in the series on E. coli ATCC 25922 (setting [4]), the MIC was determined as 0.5 µg/mL (≈ 1.28 µM).
As to `CN[C@H](CC(C)C)C(=O)N[C@H]1C(=O)N[C@@H](CC(N)=O)C(=O)N[C@H]2C(=O)N[C@H]3C(=O)N[C@H](C(=O)N[C@H](C(=O)O)c4cc(O)cc(O)c4-c4cc3ccc4O)[C@H](O)c3ccc(c(Cl)c3)Oc3cc2cc(c3O[C@@H]2O[C@H](CO)[C@@H](O)[C@H](O)[C@H]2O[C@H]2C[C@](C)(N)[C@H](O)[C@H](C)O2)Oc2ccc(cc2Cl)[C@H]1O` [Vancomycin], in the series with E. coli ATCC 25922 (Escherichia coli, ATCC25922), the MIC was over 64 µg/mL.
For the compound Gentamicin [reference compound], the MIC amounted to 1 µg/mL with MRSA strains (MRSA strain Sa211c); 0.25 µg/mL against MRSA strains (MRSA strain Sa212c); 0.5 µg/mL with MRSA strains (MRSA strain Sa220c); 0.25 µg/mL in the series with MRSA strains (MRSA strain Sa224c); 32 µg/mL in the series on MRSA strains (MRSA strain Sa228c); 1 µg/mL against MRSA strains (MRSA strain Sa234c). The compound further registered an MIC against E. coli ATCC 25922 (E. coli ATCC 25922) of 0.5 to 2 µg/mL.
Turning to `CCn1cc(C(=O)O)c(=O)c2cc(F)c(N3CCNCC3)cc21` [Norfloxacin], in the series with E. coli ATCC 25922 (setting [4]), the MIC was 0.03 to 0.06 µg/mL (≈ 0.0939 to 0.188 µM).
As for `CN1CCN(c2cc3nc(/C=C/c4ccc([N+](=O)[O-])o4)nc(Nc4ccc(O)c(O)c4)c3cc2F)CC1` [Example VIII compound “q”], the MIC in the series with B. cereus is 8 µg/mL (≈ 15.8 µM); in series [1], 8 µg/mL (≈ 15.8 µM); with B. subtilis, 8 µg/mL (≈ 15.8 µM); in series [2] it was 4 to 8 µg/mL (≈ 7.9 to 15.8 µM); with Yersinia enterocolytica it was 8 µg/mL (≈ 15.8 µM); in the series with Haemophilus influenzae it was 1 µg/mL (≈ 1.97 µM). The MIC was found to be 8 µg/mL (≈ 15.8 µM) with MRSA strains (Staphylococcus aureus, MRSA, MRSA strain Sa211c, read-out: MIC); 8 µg/mL (≈ 15.8 µM) in the series on MRSA strains (Staphylococcus aureus, MRSA, MRSA strain Sa212c, read-out: MIC); 4 µg/mL (≈ 7.9 µM) with MRSA strains (Staphylococcus aureus, MRSA, MRSA strain Sa220c, read-out: MIC); 8 µg/mL (≈ 15.8 µM) in the series on MRSA strains (Staphylococcus aureus, MRSA, MRSA strain Sa224c, read-out: MIC); 8 µg/mL (≈ 15.8 µM) in the series on MRSA strains (Staphylococcus aureus, MRSA, MRSA strain Sa228c, read-out: MIC); 8 µg/mL (≈ 15.8 µM) with MRSA strains (Staphylococcus aureus, MRSA, MRSA strain Sa234c, read-out: MIC). Besides, the MIC in the series on MRSA strains (Staphylococcus aureus, MRSA, MRSA strain Sa248c, read-out: MIC) was 8 µg/mL (≈ 15.8 µM); with MRSA strains (Staphylococcus aureus, MRSA, MRSA strain Sa249c, read-out: MIC), 8 µg/mL (≈ 15.8 µM); with MRSA strains (Staphylococcus aureus, MRSA, MRSA strain Sa253c, read-out: MIC), 8 µg/mL (≈ 15.8 µM); in the series with MRSA strains (Staphylococcus aureus, MRSA, Methicillin-Resistant S. aureus strains (MRSA), read-out: MIC), 4 to 8 µg/mL (≈ 7.9 to 15.8 µM); against anaerobic bacteria, 8 µg/mL (≈ 15.8 µM); against E. faecalis, 8 µg/mL (≈ 15.8 µM). The MIC in the series with Burkholderia cepacia is 8 µg/mL (≈ 15.8 µM); with B. atrophaeus, 8 µg/mL (≈ 15.8 µM); in series [3] it was 1 µg/mL (≈ 1.97 µM).
